Article PMC9785542, “Discovery of 1-Benzhydryl-Piperazine-Based HDAC Inhibitors with Anti-Breast Cancer Activity: Synthesis, Molecular Modeling, In Vitro and In Vivo Biological Evaluation” (Pharmaceutics, 2022)
Like-named read-outs stand apart in the source and are kept apart here. One block for each compound: values may come before it.

Key:
[1] = biological target: T1, Human recombinant C-ter-His-FLAG-HDAC1 (Homo sapiens, UniProt Q13547); parameters: method as in PMID 21832257; conditions: profiles of reference HDACi; read-out: HDAC Inhibition, IC50, HDAC1; cited from earlier work
T1 construct: His (C); FLAG (C); purchased BPS Bioscience 50051

[2] = biological target: T2, Human recombinant N-ter-GST-HDAC-6 (Homo sapiens, UniProt Q9UBN7); conditions: read-out: HDAC Inhibition, IC50, HDAC6; profiles of reference HDACi; cited from earlier work
T2 sequence (Q9UBN7 1-1215): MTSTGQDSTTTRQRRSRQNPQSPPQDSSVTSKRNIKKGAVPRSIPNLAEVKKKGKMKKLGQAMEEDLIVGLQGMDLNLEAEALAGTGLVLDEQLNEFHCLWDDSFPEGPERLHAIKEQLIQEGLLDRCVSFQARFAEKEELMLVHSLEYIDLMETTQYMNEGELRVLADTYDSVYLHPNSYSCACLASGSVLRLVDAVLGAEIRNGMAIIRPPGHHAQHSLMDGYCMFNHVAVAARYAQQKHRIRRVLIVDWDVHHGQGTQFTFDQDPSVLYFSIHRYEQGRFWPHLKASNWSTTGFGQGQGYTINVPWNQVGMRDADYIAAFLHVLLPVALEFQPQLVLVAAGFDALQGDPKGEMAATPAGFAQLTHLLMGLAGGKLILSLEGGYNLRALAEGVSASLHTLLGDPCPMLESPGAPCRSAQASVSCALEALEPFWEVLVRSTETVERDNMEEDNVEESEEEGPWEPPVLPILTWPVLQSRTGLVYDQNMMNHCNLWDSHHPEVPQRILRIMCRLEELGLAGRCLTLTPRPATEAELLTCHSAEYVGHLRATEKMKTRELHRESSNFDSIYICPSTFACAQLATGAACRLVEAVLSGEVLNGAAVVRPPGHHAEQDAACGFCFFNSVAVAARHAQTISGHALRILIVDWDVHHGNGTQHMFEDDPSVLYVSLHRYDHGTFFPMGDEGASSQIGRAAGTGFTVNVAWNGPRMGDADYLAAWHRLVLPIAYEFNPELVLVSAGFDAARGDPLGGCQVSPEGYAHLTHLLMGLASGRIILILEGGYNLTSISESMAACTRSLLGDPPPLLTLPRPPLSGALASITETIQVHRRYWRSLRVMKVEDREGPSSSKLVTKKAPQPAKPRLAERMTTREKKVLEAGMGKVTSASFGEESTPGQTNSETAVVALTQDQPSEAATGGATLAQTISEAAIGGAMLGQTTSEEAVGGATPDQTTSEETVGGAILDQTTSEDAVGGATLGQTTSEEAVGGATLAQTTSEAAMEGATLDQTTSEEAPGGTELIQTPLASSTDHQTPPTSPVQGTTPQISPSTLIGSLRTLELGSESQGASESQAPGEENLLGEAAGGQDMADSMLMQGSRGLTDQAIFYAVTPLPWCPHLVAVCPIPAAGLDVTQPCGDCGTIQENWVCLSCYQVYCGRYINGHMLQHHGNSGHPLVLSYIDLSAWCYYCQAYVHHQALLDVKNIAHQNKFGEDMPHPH

[3] = biological target: T3, Human recombinant HDAC-3/NcoR2 (Homo sapiens, UniProt O15379); conditions: read-out: HDAC Inhibition, IC50, HDAC3; cited from earlier work
[4] = biological target: T4, Human recombinant C-terminal His-tag-HDAC8 (Homo sapiens, UniProt Q9BY41); parameters: method as in PMID 21832257; conditions: profiles of reference HDACi; read-out: HDAC Inhibition, IC50, HDAC8; cited from earlier work
T4 construct: His (C); purchased BPS Bioscience 50008
T4 sequence (Q9BY41 1-377): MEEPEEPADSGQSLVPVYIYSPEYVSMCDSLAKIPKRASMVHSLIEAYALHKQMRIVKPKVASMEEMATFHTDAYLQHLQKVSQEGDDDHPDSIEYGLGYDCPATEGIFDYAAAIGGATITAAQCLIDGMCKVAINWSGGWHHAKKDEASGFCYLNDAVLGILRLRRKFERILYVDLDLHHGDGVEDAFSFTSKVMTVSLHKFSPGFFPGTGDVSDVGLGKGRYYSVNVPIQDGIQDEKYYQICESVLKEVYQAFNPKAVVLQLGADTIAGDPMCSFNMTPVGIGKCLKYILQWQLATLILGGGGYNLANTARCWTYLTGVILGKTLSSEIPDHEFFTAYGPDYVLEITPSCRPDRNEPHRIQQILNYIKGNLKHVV

[5] = test system: HDAC6; conditions: Figure 2; cited from earlier work
[6] = test system: intersegmental blood vessels (ISVs) of Tg(fli1:EGFP) zebrafish embryos; assay: Anti-angiogenic activity in Tg(fli1:EGFP) zebrafish embryos; format: in vivo; conditions: 8b 6.25-50 µM; Suten effective dose 1.56 µM
Description: The inhibitory activity of 8b on angiogenesis was examined using embryos of the transgenic zebrafish Tg(fli1:EGFP) line with GFP-labeled endothelial cells, as previously described. Briefly, embryos at the 6–8 hpf stage were exposed to three non-toxic concentrations and incubated at 28 °C by 48 hpf. At 48 hpf, the treated embryos were anesthetized with 0.02% tricaine, imaged under a fluorescence microscope (Olympus BX51, Applied Imaging Corp., San Jose, CA, USA), and analyzed for the development of intersegmental blood vessels (ISVs). The experiment was performed three times using ten embryos per concentration. ISV lengths were measured using ImageJ program, and expressed as mean value with standard deviation. Inhibitory effect of the applied treatment was determined in relation to the control (DMSO-treated) group, arbitrarily set to 100%.

[7] = biological target: T4, Human recombinant C-terminal His-tag-HDAC8; assay: HDAC-Glo I/II bioluminogenic enzyme assay, HDAC8; format: biochemical; conditions: mean ± SD of three independent experiments; read-out: HDAC Inhibition, IC50 ± SD, HDAC8
[8] = test system: MCF-7 cells; assay: Cell viability (MTT) assay, MCF-7; format: cell-based; conditions: Homo sapiens, MCF7, 48 h, read-out: Cytotoxic activity IC50 ± SD, MCF-7
Description: (§1) Human breast adenocarcinoma cells (MCF-7, ATCC® HTB-22™) and triple-negative breast cancer cells (MDA-MB-231, ATCC® HTB-26™) were obtained from the American Type Culture Collection (Rockville, MD, USA). Cells were maintained as a monolayer culture in DMEM:Ham’s 12 (1:1) medium (Sigma-Aldrich, St. Louis, MO, USA) supplemented with penicillin (192 U/mL), streptomycin (200 µg/mL), and 10% of heat-inactivated fetal calf serum (FCS). Cells were grown at 37 °C in 5% CO2 and humidified air atmosphere, by twice weekly subculture.
(§2) Cytotoxic activity of synthesized 1-benzhydryl-piperazine-based HDAC inhibitors was assessed on MDA-MB-231 and MCF-7 cells using an MTT assay. MDA-MB-231 (5 × 10^3 cells/well) and MCF-7 (5 × 10^3 cells/well) were treated with synthesized compounds in six different concentrations (100, 50, 25, 12.5, 6.25, and 3.13 μM), and each concentration was added in five replicates. MTT solution (3-(4,5-dimethylthiazol-2-yl)-2,5-diphenyltetrazolium bromide) (Sigma-Aldrich, St. Louis, USA) was added to each well (20 µL) after 48 h. After 4 h of incubation, 100 μL of 10% SDS was added in each well and incubated at 37 °C. On the next day, the absorbance at 570 nm was recorded. The ratio of absorbance (570 nm) values between treated and control cells multiplied by 100 was used to calculate cell survival (%). The concentration of synthesized HDAC inhibitors that reduced cell viability by 50% was defined as the IC50 value, and was compared to the vehicle control.

[9] = biological target: T3, Human recombinant HDAC-3/NcoR2; assay: HDAC-Glo I/II bioluminogenic enzyme assay, HDAC3; format: biochemical; parameters: purchased BPS Bioscience 50003; conditions: mean ± SD of three independent experiments; read-out: HDAC Inhibition, IC50 ± SD, HDAC3
[10] = biological target: T1, Human recombinant C-ter-His-FLAG-HDAC1; assay: HDAC-Glo I/II bioluminogenic enzyme assay, HDAC1; format: biochemical; conditions: mean ± SD of three independent experiments; read-out: HDAC Inhibition, IC50 ± SD, HDAC1
[11] = test system: MDA-MB-231 cells; assay: Apoptosis assay, Annexin V-FITC/7-AAD flow cytometry; format: cell-based, human; conditions: IC50 concentration
Description: Examined breast cancer cells (MDA-MB-231) were stained with annexin V–fluorescein isothiocyanate/and 7AAD (BD Pharmingen, San Diego, CA, USA), and the samples were prepared following the specifications given by manufacturer. The population of apoptotic cells was analyzed by flow cytometry using a FACS Calibur cytometer and Cell Quest computer software (Becton Dickinson, Heidelberg, Germany).

[12] = biological target: T2, Human recombinant N-ter-GST-HDAC-6; assay: HDAC-Glo I/II bioluminogenic enzyme assay, HDAC6; format: biochemical; parameters: GST (N); purchased BPS Bioscience 50006
[13] = test system: MDA-MB-231 cells; assay: Cell viability (MTT) assay, MDA-MB-231; format: cell-based, human; conditions: Homo sapiens, MDA-MB-231, 48 h, read-out: Cytotoxic activity IC50 ± SD, MDA-MB-231
Description: as §1, §2

[14] = test system: MDA-MB-231 tumor spheres; assay: 3D tumor sphere model, MTT and imaging; format: cell-based, human; conditions: for tumor sphere viability: 50 µM, 72 h, formed spheres, MTT
Description: MDA-MB-231 cells were seeded at a cell density of 1000 c/w in 100 μL of DMEM containing 10% FCS in a low-attachment NunclonSphera 96-well ultra-low attachment plate (Thermo Scientific Nunc™, Rochester, NY, USA), to form multicellular tumor spheres, for 4 days. The formation and growth of tumor spheres were examined and imaged with an Olympus CKX53 microscope, using a 10× objective. MDA-MB-231 tumor spheres were treated by carefully adding 50 μL of the medium with fresh nutrient medium for control spheres or with compound-supplemented medium (50 μM) for treated spheres for another 72 h. The cytotoxicity of compounds toward the MDA-MB-231 tumor spheres was investigated by MTT assay.
The formation and growth of tumor spheroids were examined and imaged with an Olympus CKX53 microscope, using 4x objective. The cytotoxicity of compounds toward the MDA-MB-231 tumor spheroids was investigated by MTT assay.

[15] = test system: MDA-MB-231 cells; assay: Cell cycle analysis, propidium iodide flow cytometry; format: cell-based, human; conditions: 72 h
Description: MDA-MB-231 cells were treated with tested compounds for specified time courses. After treatment, examined cells were washed in cold PBS and incubated for 30 min in 96% ethanol on ice, centrifuged, and incubated with 80 μL RNase A ([…]) and 50 μL propidium iodide (50 μg/mL) for 30 min at 37 °C. The cell cycle was analyzed by FACS Calibur E440 (Becton Dickinson) flow cytometer and Cell Quest software. Results are presented as a percentage of cell cycle phases.

[16] = 5 μM, mean ± standard error of triplicate

T1 sequence (Q13547 whole entry): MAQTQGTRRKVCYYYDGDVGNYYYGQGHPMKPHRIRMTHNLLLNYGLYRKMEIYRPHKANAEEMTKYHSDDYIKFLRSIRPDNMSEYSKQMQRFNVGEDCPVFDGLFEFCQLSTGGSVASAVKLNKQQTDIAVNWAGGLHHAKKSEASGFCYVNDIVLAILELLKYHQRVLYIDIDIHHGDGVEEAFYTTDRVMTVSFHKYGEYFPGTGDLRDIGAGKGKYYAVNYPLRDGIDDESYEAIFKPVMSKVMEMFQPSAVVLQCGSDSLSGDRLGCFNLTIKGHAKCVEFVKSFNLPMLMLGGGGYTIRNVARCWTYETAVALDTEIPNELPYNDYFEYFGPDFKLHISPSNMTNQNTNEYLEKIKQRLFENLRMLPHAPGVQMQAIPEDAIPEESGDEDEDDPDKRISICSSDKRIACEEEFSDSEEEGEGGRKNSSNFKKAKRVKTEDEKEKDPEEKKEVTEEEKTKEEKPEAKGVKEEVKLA
T3 sequence (O15379 whole entry): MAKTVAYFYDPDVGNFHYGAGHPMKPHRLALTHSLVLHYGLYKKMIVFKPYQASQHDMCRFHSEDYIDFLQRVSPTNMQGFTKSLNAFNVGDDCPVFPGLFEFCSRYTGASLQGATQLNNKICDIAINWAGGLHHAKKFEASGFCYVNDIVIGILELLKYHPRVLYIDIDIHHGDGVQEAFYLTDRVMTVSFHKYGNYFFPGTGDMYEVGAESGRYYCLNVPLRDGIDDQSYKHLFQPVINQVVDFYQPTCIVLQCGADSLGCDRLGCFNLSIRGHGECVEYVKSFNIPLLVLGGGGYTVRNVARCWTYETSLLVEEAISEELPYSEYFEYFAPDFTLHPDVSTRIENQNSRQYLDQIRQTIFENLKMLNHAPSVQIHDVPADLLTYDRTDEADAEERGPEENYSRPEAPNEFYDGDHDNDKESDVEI
T3 sequence (Q9Y618 395-489 partner limits assumed): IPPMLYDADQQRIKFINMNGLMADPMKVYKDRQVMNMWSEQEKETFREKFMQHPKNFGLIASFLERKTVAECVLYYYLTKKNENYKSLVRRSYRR

SMILES: CCCC(=O)[O-].[Na+] [Sodium butyrate]
IC50 [1]: 8.3 µM
IC50 [2]: > 1000 µM
IC50 [3]: 4.8 µM
IC50 [4]: 10.4 µM

SMILES: O=C(NO)c1cnc(NC2(c3ccccc3)CCC(F)(F)CC2)nc1 [ACY-1083]
IC50 [5]: 0.003 µM

SMILES: CCN(CC)CCNC(=O)c1c(C)[nH]c(/C=C2\C(=O)Nc3ccc(F)cc32)c1C [sunitinib-malate, reference compound]
toxic response in embryos at anti-angiogenic effective doses [6]: life-threatening pericardial edema

IC50 [7]: 2.44 ± 0.51 µM
IC50 [9]: 1.86 ± 0.09 µM
IC50 [10]: 4.73 ± 0.67 µM
% HDAC6 Inhibition at 5 μM [12, 16]: 95.6 ± 0.9%
inhibition at 5 µM [12, 16]: > 90%
IC50 ([12]; mean ± SD of three independent experiments, read-out: HDAC Inhibition, IC50 ± SD, HDAC6): 0.186 ± 0.005 µM
Selectivity Ratio HDAC1/6 ([12]; ratio of IC50 values): 25.4
Selectivity Ratio HDAC3/6 ([12]; ratio of IC50 values): 10
Selectivity Ratio HDAC8/6 ([12]; ratio of IC50 values): 13.1
SMILES: O=C(CCCCCN1CCN(C(c2ccccc2)c2ccccc2)CC1)NO [Compound 6b, 6-(4-(diphenylmethyl)-piperazin-1-yl)-N-hydroxyhexanamide]
IC50 [8]: 84 ± 5.2 µM
programmed cell death ([11]; 24 h): slight increase
early apoptotic cells ([11]; 48 h): approximately 20%
early apoptotic cells ([11]; 72 h): approximately 20%
IC50 [13]: 33.4 ± 2.79 µM
tumor sphere viability [14]: mild decrease
sphere formation ([14]; co-culture 4 d, at higher concentrations): inhibit sphere formation to some extent

inhibition at 5 µM [12, 16]: < 25%
SMILES: O=C(CCCCN1CCN(C(c2ccccc2)c2ccccc2)CC1)NO [Compound 5b, 5-(4-(diphenylmethyl)-piperazin-1-yl)-N-hydroxypentanamide]

SMILES: CCCC(CCC)C(=O)O [Valproic acid]
IC50 [1]: 660 µM
IC50 [2]: > 1000 µM

inhibition at 5 µM [12, 16]: < 25%
SMILES: O=C(CCN1CCN(C(c2ccccc2)c2ccccc2)CC1)NO [Compound 3b, 3-(4-(diphenylmethyl)-piperazin-1-yl)-N-hydroxypropionamide]

SMILES: CN1CCc2c(c3ccccc3n2Cc2ccc(C(=O)NO)cc2)C1 [tubastatin A, reference compound]
IC50 [8]: 93.3 ± 9.4 µM
IC50 [13]: 20.8 ± 2.84 µM
tumor sphere viability [14]: mild decrease
sphere formation and spheres viability ([14]; co-culture 50 μM, 4 d in sphere culture conditions): significantly inhibited
sub-G1 phase cells [15]: around 30%
